Results: patent US20080051431A1, “Methods and compositions using immunomodulatory compounds in combination therapy” (priority 2006, published 2008)
“Also recorded” adds a separate entry of the source.

Legend:
cord blood CD34+ cells = experiment: Expansion of cord blood-derived CD34+ cells (cell count and anti-CD34 flow cytometry); type: cell-based; conditions: for effects of combination with TSA on CD34+ expansion, CD34+ cell number / effects of combination with TSA on CD34+ expansion, percent of CD34+ cells / effects of combination with VPA on CD34+ expansion, CD34+ cell number / effects of combination with VPA on CD34+ expansion, percent of CD34+ cells / number of CD34+ cells / percent of CD34+ cells: after 6 days of culture; for effects of combination with TSA on CD34+ expansion, CD34+ cell number: FIGS. 7 and 9; for effects of combination with TSA on CD34+ expansion, percent of CD34+ cells: FIGS. 8 and 10; for effects of combination with VPA on CD34+ expansion, CD34+ cell number: FIGS. 11 and 13; for effects of combination with VPA on CD34+ expansion, percent of CD34+ cells: FIGS. 12 and 14; for number of CD34+ cells / percent of CD34+ cells: compound alone, in a dose dependent manner; for kind of combination effect with VPA on CD34+ expansion (number and percent): tables in FIGS. 11-14
Description: (§1) Namalwa were cultured in RPMI-1640 media (Invitrogen, Carlsbad) supplemented with 10% fetal bovine serum, penicillin (100 u/ml) and streptomycin (100 μg/ml). CD34^+ cells were expanded in serum free conditions in Iscove's DMEM (Invitrogen, Carlsbad, Calif.) supplemented with 20% serum substitute BIT (StemCell Techologies, Vancouver, BC) in the presence of SCF (100 ng/ml), Flt3-L (100 ng/ml) and IL-3 (20 ng/ml) (Biosource International, Camarillo, Calif.). Namalwa cells and CD34+ cells were cultured for 3 and 6 days, respectively. DMSO 0.1%, Comp. 1 or Comp. 2, valproic acid (VPA) or trichostatin A (TSA) at the concentration indicated were added during the 3 or 6 days of culture. BM-CD34+ cells were cultured in Iscove's MDM with BIT 95000 (StemCell technologies) in the presence of growth factors. During the first 6 days CD34^+ cells were expanded with SCF (100 ng/ml), Flt3-L (100 ng/ml), and IL-3 (20 ng/ml) and then differentiated toward the erythroid lineage by culture with SCF (50 ng/ml) and EPO (2U or 4 U/ml) for 6 days. To study the effect of immunomodulatory compounds, CD34^+ progenitor cells were differentiated for a period of 6 days in the presence or absence of Comp. 1, Comp. 2 or hydroxyurea (HU).
(§2) Namalwa and CD34^+ cells were plated at 4000 and 2000 cells per well, respectively into 96-well plate and treated with compound. After the time indicated, cells were counted and phenotypically analyzed by flow cytometry using the FACSarray. The percentage of apoptotic cells and CD34^+ cells were monitored using Propidium iodide staining (BD pharmingen, Chicago, Ill.) and the antibody anti-CD34 (PE-conjugated) (BD pharmingen), respectively, according to the manufacturer experimental procedure.

[1] = test system: Namalwa cells (human Burkitt Lymphoma); experiment: Namalwa cell apoptosis (Propidium iodide staining, flow cytometry); type: cell-based; conditions: 3 days; for effect of combination with VPA on inducing apoptosis: FIGS. 4 and 6
Description: as §1, §2

[2] = test system: CD34+ hematopoietic stem cells from a healthy donor; experiment: Fetal hemoglobin expression in CD34+ cells from a healthy donor differentiated towards erythrocytes; type: cell-based; conditions: for percentage of HbF expressing cells: compound alone, healthy donor, after 6 days of culture, in a dose dependent manner; for effect of combination with HU on HbF expression: healthy (normal) donor, HU at 10 μM added to the growth cocktail, 6 days, FIG. 15
Description: as §1
(§3) After 6 days of culture, cells were washed with phosphate-buffered saline (PBS), fixed with 2% paraformaldehyde, permeabilized with cytopermeafix (BD-pharmingen), stained with HbF-PE (BD Pharmingen, San Diego, Calif.) and analyzed by flow cytometry (FACSAria, BD pharmingen).

[3] = test system: CD34+ cells from sickle cell anemic patient (SCA); experiment: Fetal hemoglobin expression in CD34+ cells from sickle cell anemic patient differentiated towards erythrocytes; type: cell-based
Description: Namalwa CSN.70 cells were purchased from DSMZ (Brauschweig, Germany). Bone marrow and cord blood CD34^+ cells were purchased Cambrex (Walkersville, Md.) and AllCells (Emeryville, Calif.), respectively. Bone marrow CD34+ cells from Sickle Cell Anemic (SCA) patient were provided by Christopher Morris (Loma Linda University Medical Center, CA).
Namalwa were cultured in RPMI-1640 media (Invitrogen, Carlsbad) supplemented with 10% fetal bovine serum, penicillin (100 u/ml) and streptomycin (100 μg/ml). CD34^+ cells were expanded in serum free conditions in Iscove's DMEM (Invitrogen, Carlsbad, Calif.) supplemented with 20% serum substitute BIT (StemCell Techologies, Vancouver, BC) in the presence of SCF (100 ng/ml), Flt3-L (100 ng/ml) and IL-3 (20 ng/ml) (Biosource International, Camarillo, Calif.). Namalwa cells and CD34+ cells were cultured for 3 and 6 days, respectively. DMSO 0.1%, Comp. 1 or Comp. 2, valproic acid (VPA) or trichostatin A (TSA) at the concentration indicated were added during the 3 or 6 days of culture. […]
as §3

[4] = test system: Namalwa cells (human Burkitt Lymphoma); experiment: Namalwa cell proliferation (cell count by flow cytometry; BrDu incorporation); type: cell-based; conditions: 3 days; for effect of combination with VPA on cell proliferation arrest: FIGS. 3 and 5
Description: as §1, §2
Namalwa cells were plated at 10,000 cells per well in 96 well plates and treated with TSA and Comp. 1 at the concentration indicated for 3 days. The effects of TSA and Comp. 1 on cell proliferation were measured using BrDu incorporation kit (Roche, Germany).

[5] = cited from earlier work; for relative stability among polymorphs: Form A: among anhydrous polymorphs, Form E: in aqueous solvent systems; for hygroscopicity: polymorphic form of 3-(4-amino-1-oxo-1,3 dihydro-isoindol-2-yl)-piperidene-2,6-dione; for conversion upon heating (desolvation experiments): Form E: about 125° C. for about five minutes, Form B: 175° C. for about five minutes; for interconversion in solvent systems or at higher relative humidity: interconversion studies

SMILES: Nc1cccc2c1C(=O)N(C1CCC(=O)NC1=O)C2=O (stereo not drawn) [Compound 1, 4-(amino)-2-(2,6-dioxo(3-piperidyl))-isoindoline-1,3-dione]
- effect of the addition of TSA on the compound's effect on CD34+ expansion (cord blood CD34+ cells; TSA at 10 nM added to the growth cocktail, 6 days): significantly improved
- effect of the addition of VPA on the compound's effect on CD34+ expansion (cord blood CD34+ cells; VPA at 0.1, 0.3 and 1 mM added to the growth cocktail, 6 days): significantly improved
- effects of combination with TSA on CD34+ expansion, CD34+ cell number (cord blood CD34+ cells): additive and synergistic
- effects of combination with TSA on CD34+ expansion, percent of CD34+ cells (cord blood CD34+ cells): additive and synergistic
- effects of combination with VPA on CD34+ expansion, CD34+ cell number (cord blood CD34+ cells): additive and synergistic
- effects of combination with VPA on CD34+ expansion, percent of CD34+ cells (cord blood CD34+ cells): additive and synergistic
- number of CD34+ cells (cord blood CD34+ cells): increased
- percent of CD34+ cells (cord blood CD34+ cells): increased
- kind of combination effect on CD34+ expansion (number and percent), partner printed as VPA (cord blood CD34+ cells; tables in FIGS. 7-10, which belong to the TSA experiments, 6 days): additive to Compound 1, and in some conditions, a synergistic effect was observed
- kind of combination effect with VPA on CD34+ expansion (number and percent) (cord blood CD34+ cells; 6 days): additive to Compound 1, and in some conditions, a synergistic effect was observed
- effect of combination with VPA on inducing apoptosis [1]: synergistic and additive; also recorded: additive and synergistic
- effect of combination with TSA on inducing apoptosis ([1]; TSA at 10 nM, FIG. 2): synergistic and additive
- percentage of HbF expressing cells [2]: increased
- effect of combination with HU on HbF expression [2]: significantly improved the effect of Compound 1 and Compound 2 on HbF expression in a synergistic manner
- effect of combination with HU on HbF expression ([3]; HU at 10 μM added to the growth cocktail, 6 days, FIG. 16): significantly improved the effect of Compound 1 on HbF expression in a synergistic manner
- percentage of HbF expressing cells ([3]; compound alone, after 6 days of culture, in a dose dependent manner): increased
- effect of combination with VPA on cell proliferation arrest [4]: synergistic and additive; also recorded: additive and synergistic
- effect of combination with TSA on cell proliferation arrest ([4]; TSA at 10 nM, FIG. 1): synergistic and additive

SMILES: Nc1cccc2c1CN(C1CCC(=O)NC1=O)C2=O (stereo not drawn) [Compound 2, 3-(4-amino-1-oxo-1,3-dihydro-isoindol-2-yl)-piperidine-2,6-dione]
- effect of the addition of TSA on the compound's effect on CD34+ expansion (cord blood CD34+ cells; TSA at 1 and 10 nM added to the growth cocktail, 6 days): significantly improved
- effect of the addition of VPA on the compound's effect on CD34+ expansion (cord blood CD34+ cells; VPA at 0.1 and 0.3 mM added to the growth cocktail, 6 days): significantly improved
- effects of combination with TSA on CD34+ expansion, CD34+ cell number (cord blood CD34+ cells): additive and synergistic
- effects of combination with TSA on CD34+ expansion, percent of CD34+ cells (cord blood CD34+ cells): additive and synergistic
- effects of combination with VPA on CD34+ expansion, CD34+ cell number (cord blood CD34+ cells): additive and synergistic
- effects of combination with VPA on CD34+ expansion, percent of CD34+ cells (cord blood CD34+ cells): additive and synergistic
- number of CD34+ cells (cord blood CD34+ cells): increased
- percent of CD34+ cells (cord blood CD34+ cells): increased
- kind of combination effect with VPA on CD34+ expansion (number and percent) (cord blood CD34+ cells; 6 days): additive to Compound 2, and in some conditions, a synergistic effect was observed
- effect of combination with VPA on inducing apoptosis [1]: synergistic and additive; also recorded: additive and synergistic
- percentage of HbF expressing cells [2]: increased
- effect of combination with HU on HbF expression [2]: significantly improved the effect of Compound 1 and Compound 2 on HbF expression in a synergistic manner
- effect of combination with VPA on cell proliferation arrest [4]: synergistic and additive; also recorded: additive and synergistic

SMILES: Nc1cccc2c1CN(C1CCC(=O)NC1=O)C2=O (stereo not drawn) [Form A, 3-(4-amino-1-oxo-1,3 dihydro-isoindol-2-yl)-piperidene-2,6-dione]
- relative stability among polymorphs [5]: most thermodynamically stable anhydrous polymorph
- hygroscopicity [5]: weakly or not hygroscopic

SMILES: Nc1cccc2c1CN(C1CCC(=O)NC1=O)C2=O (stereo not drawn) [Form B, 3-(4-amino-1-oxo-1,3 dihydro-isoindol-2-yl)-piperidene-2,6-dione]
- conversion upon heating (desolvation experiments) [5]: can convert to Form F
- interconversion in solvent systems or at higher relative humidity [5]: converts to Form E in aqueous solvent systems, and converts to other forms in acetone and other anhydrous systems

SMILES: Nc1cccc2c1CN(C1CCC(=O)NC1=O)C2=O (stereo not drawn) [Form C, 3-(4-amino-1-oxo-1,3 dihydro-isoindol-2-yl)-piperidene-2,6-dione]
- interconversion in solvent systems or at higher relative humidity [5]: can convert to Form B at higher relative humidities
- hygroscopicity [5]: not hygroscopic below about 85% RH

SMILES: Nc1cccc2c1CN(C1CCC(=O)NC1=O)C2=O (stereo not drawn) [Form D, 3-(4-amino-1-oxo-1,3 dihydro-isoindol-2-yl)-piperidene-2,6-dione]
- interconversion in solvent systems or at higher relative humidity [5]: convert to Form B when stressed at higher relative humidities
- hygroscopicity [5]: either weakly or not hygroscopic

SMILES: Nc1cccc2c1CN(C1CCC(=O)NC1=O)C2=O (stereo not drawn) [Form E, 3-(4-amino-1-oxo-1,3 dihydro-isoindol-2-yl)-piperidene-2,6-dione]
- relative stability among polymorphs [5]: most stable form
- conversion upon heating (desolvation experiments) [5]: can convert to Form B
- interconversion in solvent systems or at higher relative humidity [5]: can convert to Form C in an acetone solvent system and to Form G in a THF solvent system
